The values that follow come from patent US20240115557A1, “INHIBITORS OF RNA-GUIDED NUCLEASES AND USES THEREOF” (The Brigham and Women's Hospital, Inc., priority 2022, published 2024).

Test [1] has as its system U2OS.eGFP.PEST cells. In words: eGFP fluorescence counter assay in absence of SpCas9:gRNA. The format is cell-based, human. As for the experimental part: FIG. 73A-73E Counter assays to validate BRD7586 in cells FIG. 73A,B Immunoblotting analysis of SpCas9 expression in (A) HEK293T cells or (B) U20S.eGFP.PEST cells transfected with SpCas9 plasmid were incubated with BRD7586 for 24 h (n=2 or 3 independent experiments). p>0.05 for BRD7586 at […] compared to DMSO in U20S.eGFP.PEST cells (paired t test, two-tailed) FIG. 73C Changes in the fluorescence intensity in the presence of BRD7586 in U20S.eGFP.PEST. Cells were treated with the compound for 24 h, and the fluorescence was measured to calculate the fraction of GFP-positive populations. Means from 3 independent experiments are shown. […] Error bars represent SD from 3 independent experiments. For SpCas9, p≤0.01 for BRD7586 at 15 μM compared to DMSO. For LbCas12a, p>0.05 for BRD7586 at 15 μM compared to DMSO in all experiments (unpaired t test, two-tailed).

Test [2] concerns the target T1, SpCas9 (Streptococcus pyogenes serotype M1, UniProt Q99ZW2). Description: Targeted deep sequencing of indels (eGFP, EMX1, FANCF, VEGFA). Format: cell-based. As for the experimental part:
U2OS.eGFP.PEST cells were nucleofected as described above for the eGFP disruption assay, plated in a 24-well plate at the density of 150,000 cells per well, and incubated with BRD7586 for 24 h. Then, the genomic DNA was extracted using DNeasy Blood & Tissue Kit (Qiagen). HEK293T cells were plated in a 24-well plate at the density of 100,000 cells per well. The next day, cells were transfected with 500 ng of SpCas9 plasmid and 250 ng of EMX1-, VEGFA-, or FANCF-targeting gRNA plasmid using Lipofectamine 3000 (Invitrogen). Indicated amount of compound was added at the time of transfection, cells were incubated for 24 h or 48 h, and genomic DNA was extracted. Next-generation sequencing (NGS) samples were prepared using a two-step PCR protocol. NGS libraries were quantified using KAPA Library Quantification Kit (Roche) and diluted to 4 nM. Sequencing of the pooled library was performed using MiSeq Reagent Kit v2 (Illumina). The percentage of indel in the demultiplexed sequence files was analyzed using the CRISPResso2 software from the Pinello Lab.^49

The target in test [3] is T1, SpCas9. In words: HiBiT knock-in assay, SpCas9, HEK293T cells. The format is cell-based. An excerpt:
Primary and secondary screening. The primary screen assayed a selection of unique chemical scaffolds derived from commercially available compounds and known bioactive molecular libraries (Table 7). Auto-fluorescent compounds were removed by a counter screen. Overall, the CAA was used to assay 122,409 small molecules with over 2,500 unique chemical scaffolds (FIG. 64F, Table 7). Of these compounds, 547 were selected as hits (Z score >3 in both replicates) for testing in orthogonal cell-based secondary assays. Hits were tested in duplicate in an eGFP disruption assay, wherein U2OS.eGFP.PEST cells^33 transfected with SpCas9 plasmid and eGFP-targeting gRNA plasmid were incubated with 20 μM of the compounds. In this assay, any compound that inhibited SpCas9 would rescue the loss of eGFP fluorescence. Here, toxic and auto-fluorescent compounds with a high GFP signal in cells were removed as false positives. […] Next, Applicants tested the 15 compounds in a luminescence-based gain-of-signal HiBiT knock-in assay, which involves SpCas9-mediated homology-directed tagging of GAPDH with a short peptide that luminesces upon complementation with a subunit derived from nanoluciferase.^34 Complementarily, the eGFP-disruption assay is fluorescence-based and involves error-prone DNA repair. As a counter-screen to remove false positives caused by cell death (viability <80%), the cell viability was measured after incubation.
Approximately 400,000 HEK293T cells were nucleofected with 400 ng of SpCas9 plasmid, 40 ng of GAPDH-targeting gRNA plasmid, and 40 pmol of single-strand oligodeoxynucleotide (ssODN) using SF Cell Line 4D-Nucleofector X Kit (Lonza) following the pulse program of DS-150. For RNP-based genome editing, 10 pmol of Cas9 and 12 pmol of gRNA were mixed and incubated for 5 min. Then, 20 pmol of ssODN was added. Cells were nucleofected with the resulting mixture using the same pulse program. Cells were then transferred to a 96-well plate at the density of 35,000 cells per well, and incubated with indicated amount of compounds for 24 h. Cell viability was measured using PrestoBlue reagent (Thermo) with a SpectraMax M5 (Molecular Devices) at the excitation and emission wavelength of 544 nm and 590 nm, respectively. Next, luminescence measurement was performed using the Nano-Glo HiBiT Lytic Detection System (Promega) according to the manufacturer's protocol with an EnVision Multilabel Plate Reader (PerkinElmer) at the integration time of 0.5 s per well. The resulting luminescence signals were normalized based on the cell viability.^34

For orientation: EC50 means the concentration that produces a half-maximal response. A low value points to greater potency.

T1 sequence (Q99ZW2 whole entry): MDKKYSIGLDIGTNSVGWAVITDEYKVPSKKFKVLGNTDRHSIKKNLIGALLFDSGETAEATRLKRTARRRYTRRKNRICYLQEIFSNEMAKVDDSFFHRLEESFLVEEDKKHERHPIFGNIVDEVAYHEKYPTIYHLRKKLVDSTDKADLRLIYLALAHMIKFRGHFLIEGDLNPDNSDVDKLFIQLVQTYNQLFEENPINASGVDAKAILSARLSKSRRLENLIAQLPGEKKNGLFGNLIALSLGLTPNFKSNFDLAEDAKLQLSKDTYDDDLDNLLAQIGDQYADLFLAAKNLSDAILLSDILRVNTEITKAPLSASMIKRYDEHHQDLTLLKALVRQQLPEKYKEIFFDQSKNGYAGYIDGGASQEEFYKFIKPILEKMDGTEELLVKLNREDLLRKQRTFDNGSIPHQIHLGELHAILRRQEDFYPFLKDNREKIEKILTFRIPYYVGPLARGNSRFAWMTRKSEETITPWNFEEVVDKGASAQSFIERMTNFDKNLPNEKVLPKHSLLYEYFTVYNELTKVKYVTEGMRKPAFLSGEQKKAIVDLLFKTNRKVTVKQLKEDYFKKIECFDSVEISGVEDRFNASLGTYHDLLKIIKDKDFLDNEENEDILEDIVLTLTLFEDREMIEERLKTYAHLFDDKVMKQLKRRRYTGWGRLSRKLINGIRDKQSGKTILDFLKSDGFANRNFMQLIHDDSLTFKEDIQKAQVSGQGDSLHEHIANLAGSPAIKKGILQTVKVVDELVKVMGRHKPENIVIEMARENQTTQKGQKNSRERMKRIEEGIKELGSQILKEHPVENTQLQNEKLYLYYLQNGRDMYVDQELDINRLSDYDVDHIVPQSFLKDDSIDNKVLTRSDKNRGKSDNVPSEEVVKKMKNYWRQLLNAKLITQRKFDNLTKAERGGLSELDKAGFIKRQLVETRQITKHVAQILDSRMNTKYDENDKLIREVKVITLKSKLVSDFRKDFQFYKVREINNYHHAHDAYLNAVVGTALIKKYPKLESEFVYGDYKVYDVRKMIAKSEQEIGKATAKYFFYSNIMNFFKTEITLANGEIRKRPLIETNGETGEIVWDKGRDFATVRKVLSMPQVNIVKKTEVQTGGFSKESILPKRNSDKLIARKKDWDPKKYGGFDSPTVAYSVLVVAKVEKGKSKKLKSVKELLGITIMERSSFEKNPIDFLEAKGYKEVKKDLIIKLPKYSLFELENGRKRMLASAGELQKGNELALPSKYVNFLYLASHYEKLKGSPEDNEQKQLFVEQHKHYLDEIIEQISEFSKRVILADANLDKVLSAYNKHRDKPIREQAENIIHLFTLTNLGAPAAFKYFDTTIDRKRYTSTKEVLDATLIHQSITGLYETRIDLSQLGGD

Turning to `O=C(CCS(=O)(=O)c1ccc(Cl)cc1)Nc1nc(-c2ccncc2)cs1` [BRD7586], in test [1], the “Effect on eGFP expression in the absence of SpCas9:gRNA” value is given as “without affecting the eGFP expression”. Further, in test [2] (HEK293T, EMX1, FANCF or VEGFA, 48 h), the “Specificity of SpCas9 (on-target versus off-target ratio)” value was “enhanced the specificity of SpCas9”. Further, the “Inhibition of indel activity by next-generation sequencing” value in test [2] (multiple genomic loci) is given as “inhibited the indel activity of SpCas9 at multiple genomic loci”. The EC50 was determined as 5.04 µM in test [3] (EC50 in HiBit knockin assay, HEK293T, SpCas9 plasmid, sgRNA plasmid and ssODN, 0.06 uM to 20 uM, 24 h (FIG. 44D)); 5.7 ± 0.36 µM in test [3] (EC50 in the HiBiT knock-in assay, from three independent experiments).
